Reference: patent US20210254272A1, “TEXTILES HAVING ANTIMICROBIAL PROPERTIES” (Livinguard AG, priority 2015, published 2021)

Assay: Leaching: 10 grams fabric in 100 milliliters distilled water, 7 days, GC-MS
Assay type: physicochemical
Method: To test for a potential leaching of the antimicrobial agents fixed to the textile material, the following test was performed. A test fabric of polyester 65%/cotton 35% with 210 g/m2 was treated with polyhexamethylenebiguanide (PHMB) 0.5%, silver chloride 0.075%, octadecylaminomethyl trihydroxysilylpropyl ammonium chloride (organosilane) 0.4%, and propiconazole 0.5%
The treated textile material was put into distilled water at a ratio of 1:10. Specifically, a fabric of 10 grams was soaked in 100 milliliters of distilled water. The fabric was incubated in the water for 7 days at room temperature, i.e. between 21 and 25° C.
Following said incubation time, the fabric was removed from the water and the exposed water was tested for the presence of the above five active ingredients using gas chromatography-mass spectrometry (GC-MS).

With `[Cl][Ag]` [Silver chloride] the “Extracted water Conc, ppm” value was “BDL (BDL-below detection limit Detection limit: 1 parts per million (ppm))”.
